Patent publication US10449198B2, “Method for treating pain” (The University of Liverpool, priority 2016, dated 2019)

Columns and labels:
[1] = test system: neuropathic rats; assay: Neuropathic pain model (partial sciatic nerve ligation): tactile allodynia / mechanical paw withdrawal thresholds; type: in vivo, rat
Procedure: Fasted, male, Wistar rats. n=6/group. Vehicle: 10% DMSO/10% Solutol HS15/80% saline. 10 ml/kg p.o. One-way ANOVA, comparison with time-matched vehicle group using Tukey's HSD test, *p<0.05, **p<0.01, ***p<0.001
Protocol for study of compounds in a model of neuropathic pain: reversal of tactile allodynia.
(§1) • 1) In rats a peripheral neuropathy was induced by partial ligation of the sciatic nerve in one hind limb. • 2) Two weeks (12-15 days) after induction of peripheral neuropathy stable mechanical (tactile) allodynia was induced in the hind paw of the affected limb. • 3) Five treatment groups of male SD rats (n=8) were used: vehicle control (drug formulation), 3 drug doses, and a positive control, lamotrigine (30 mg/kg). Animals were randomized between groups and the experiment was carried out using blinded conditions. The study was split with n=4/group in each experiment. • 4) Baseline behavioural measurements were obtained prior to surgery and at intervals post-surgery. Predose behavioural measurements were obtained by measuring paw withdrawal thresholds 12-15 days following nerve ligation. • 5) Compound efficacy was determined by measuring paw withdrawal thresholds at specified intervals following vehicle/compound treatment. Animals
All animal procedures were carried out in accordance with the UK Animals (Scientific Procedures) Act 1986 and associated guidelines. Animals were maintained in a controlled lighting environment and given food and water ad libitum. Male Sprague Dawley rats (120-140 g at time of surgery) were used.
Tests compounds as well as lamotrigine (30 mg/kg, volume: 10 ml/kg)) were prepared in the designated formulation (10% DMSO, Solutol HS 15/80% and 0.9% saline for p.o. administration) and administered via the chosen route.
Allodynia was examined in the model of neuropathic pain induced by partial ligation of the sciatic nerve as described by Seltzer et al (1990). […]
Tactile allodynia was assessed by measuring withdrawal thresholds to calibrated von Frey hairs. […] The lowest amount of force required to elicit a response was recorded as the paw withdrawal threshold (in grams).
Allodynia was measured on both the ipsilateral (ligated) and contralateral (non-ligated) paw prior to (pre-dose) and at a set time point following compound or vehicle administration (post-dose). […]
(§2) Compound/vehicle were administered at specified doses. Following treatment, further readings were taken; 1, 3, 6 and 24 hour after p.o. administration.
(§3) Raw data were analysed using parametric statistical tests, including one-way analysis of variance (ANOVA) followed by Tukey's post hoc test repeated measures of ANOVA. […]

[2] = test system: neuropathic rats; assay: Neuropathic pain model (partial sciatic nerve ligation): cold hyperalgesia, 10° C. cold plate paw withdrawal latency; type: in vivo, rat
Procedure: Fasted, male, Wistar rats. n=6/group. Vehicle: 10% DMSO/10% Solutol HS15/80% saline. 10 ml/kg p.o. One-way ANOVA, comparison with time-matched vehicle group using Tukey's HSD test, *p<0.05, **p<0.01, ***p<0.001.
as §1, with “treatment. Animals […]” for “treatment. Animals”
as §2
Cold sensitivity was assessed using a commercially available cold-plate (Ugo Basile, Milan). The cold-plate was set according to pre-determined calibration data using a surface temperature probe to correlate set temperature to actual surface temperature over a wide temperature range (−5° C. to 26° C.). […] Paw withdrawal latencies were determined with the cold-plate set at 10° C. […] The end point was taken as the withdrawal of the paw and recorded as the withdrawal latency for the ipsilateral and the contralateral paw. […]
as §3

[3] = biological target: T1, α1 glycine (Homo sapiens, UniProt P23415); assay: Glycine receptor activity, two-electrode voltage-clamp in Xenopus laevis oocytes; type: cell-based; settings: TEVC, holding potential −70 mV
T1 construct: expressed in transfected cells; host or cells: Xenopus laevis oocytes (cRNA injection)
T1 sequence (P23415 29-457): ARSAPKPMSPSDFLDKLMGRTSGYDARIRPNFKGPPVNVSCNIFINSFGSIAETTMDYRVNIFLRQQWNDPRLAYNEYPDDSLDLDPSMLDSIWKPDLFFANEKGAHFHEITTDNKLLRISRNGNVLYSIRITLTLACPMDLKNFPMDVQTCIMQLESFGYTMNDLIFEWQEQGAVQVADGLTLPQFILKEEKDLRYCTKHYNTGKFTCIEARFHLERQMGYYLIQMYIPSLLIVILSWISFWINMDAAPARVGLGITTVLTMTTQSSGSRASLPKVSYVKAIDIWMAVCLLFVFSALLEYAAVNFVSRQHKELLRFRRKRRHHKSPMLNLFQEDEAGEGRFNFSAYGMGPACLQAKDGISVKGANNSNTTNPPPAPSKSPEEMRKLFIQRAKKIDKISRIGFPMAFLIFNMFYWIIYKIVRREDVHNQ
Procedure: Oocytes were surgically removed from adult female Xenopus laevis clawfrogs anaesthetized by immersion in 0.3% tricaine in water (w/v). All protocols were approved by the local animal care and use committee (II25.3-19c20/15; RP Darmstadt, Germany). Stage V and VI Oocytes were dissected and stored in sterile-filtered ND96 medium (composition in mM: 96 NaCl, 2 KCl, 1 CaCl, 1 MgCl, 5 HEPES, pH 7.4) containing gentamycin (50 μg/mL). The oocytes were isolated and enzymatically and maintained as described previously (Grudzinska et al., 2005). Oocytes were injected with 5 ng of cRNA using a Drummond microinjector (Drummond Scientific, Broomall, USA) and incubated in ND96 for 24 h at 18° C. before electrophysiological recording. Two-electrode voltage-clamp (TEVC) with microelectrodes containing 3 M KCl was performed in bath solution at a holding potential of −70 mV as described previously (Laube et al., 2000). […]
Currents were measured with Clampfit 9.2 software (Molecular Devices), Results were analyzed using the KaleidaGraph program (Synergy Software, Reading, Pa.) and GraphPad Prism version 5.0 (GraphPad Software Inc., San Diego, Calif.). […] For propofol and 4-chloropropofol modulation, responses to EC20 glycine after application were analyzed as described previously (Lynagh and Laube, 2014); mean±standard error of the mean (SEM) are reported. […]

[4] = contralateral (non-ligated) paw

EC50 [3]: 0.46 nM
melting point: 174 to 176 °C
Structure (SMILES): CC(C)(C)c1cc(C(=O)N2CCOCC2)cc(C(C)(C)C)c1O [Compound 82, (3,5-Di-tert-butyl-4-hydroxyphenyl)(morpholino) methanone]
Peak reversal of tactile allodynia ([1]; 30 mg/kg p.o., at 1 h, ipsilateral paw, neuropathic rats): 72%
Efficacy across doses (cold and mechanical parameters) ([1]; all three doses, p.o.): good and dose-related efficacy
Contralateral paw withdrawal thresholds to mechanical pressure [1, 4]: significant increase
Reversal of mechanical (paw pressure) parameter ([1]; p.o., neuropathic rats): marked and long-lasting reversal
Peak reversal of cold hyperalgesia ([2]; 30 mg/kg p.o., at 1 h, 10° C. cold plate, neuropathic rats): 74%
Contralateral paw withdrawal latencies to cold [2, 4]: increased
Reversal of cold (10° C. cold plate) parameter ([2]; p.o., neuropathic rats): marked and long-lasting reversal
